According to patent publication US20260060928A1, “TALC-FREE ACTIVE INGREDIENT COATING” (Hermes Pharma GmbH, priority 2022, published 2026):
≈ marks a conversion by molar mass, not a printed value. Structures can show the parent of a compound that is named as a salt.

Assay: Solubility of the active ingredient in water at room temperature
Format: physicochemical
Experimental: Further, unless specified otherwise, any measured provisions such as densities, solubulities, or the like, are understood to be measured at room temperature (i.e., 20±5° C. as defined by the European Pharmacopoeia or by the WHO guidance ‘Guidelines for the Storage of Essential Medicines and Other Health Commodities’ (2003)).

| solubility [µg/mL] | solubility in water at room temperature [µg/mL] | Compound |
| --- | --- | --- |
| 2000 (≈ 8.61 mM) |  | COc1ccc2[nH]cc(CCNC(C)=O)c2c1 [melatonin] |
| ≥ 100000 |  | CNC[C@H](O)c1cccc(O)c1 [phenylephrine HCl] |
|  | 12500 | vitamin B12 [Vit. B12] |
